Experimental data taken from patent US20050191294A1, “Compositions and methods of use of targeting peptides for diagnosis and therapy” (Board of Regents, The University of Texas System, priority 2003, published 2005).
Where a SMILES comes first, the peptide text is derived from it. Bridges are numbered along the chain shown (N, C = ends). Primed or numbered codes have the meaning given here. Where no end group is shown, it is not given here. [ ]: non-standard residue; d: D form. FITC′ = not defined here

Assays:
[1] = test system: diet-induced obese C57BL/6 mice; test: Fat resorption and metabolic analysis in diet-induced obese mice; details: 4 weeks of treatment
[2] = test system: wild-type mice obese due to old age; test: Treatment of age-related obesity in regular diet-fed wild-type mice; format: in vivo, mouse
Method: Fat resorption and metabolic analysis. […] Tissue lipids were measured as described.

LNCaP cells [3] = test: Induction of apoptosis, WST-1 cell viability assay, LNCaP; format: cell-based, human; details: 10-100 μM, 24-72 hours
Method: (§1) Induction and Quantification of Apoptosis with […] (SEQ ID NO:1)-GG-D(KLAKLAK)2 (SEQ ID NO:11) Synthetic Peptide. Soluble […] (SEQ ID NO:1)-GG-D(KLAKLAK)2 (SEQ ID NO:11), […] […] The unrelated control peptide […] (SEQ ID NO:5)-GG-D(KLAKLAK)2 (SEQ ID NO:11) was synthesized by Genemed Synthesis, Inc. (South San Francisco, Calif.). LNCaP, MDA-PCa-2b cells (each at 3×10^4 per well), and EF43fgf-4 cells (7) at 2×10^4 per well were seeded in triplicates and incubated in 96-well plates (Becton Dickinson, Franklin Lakes, N.J.) for 24-72 hours at 37° C., with serially increasing concentrations (10-100 μM) of […] (SEQ ID NO:1))-GG-D(KLAKLAK)2 (SEQ ID NO:11) peptide, […] (SEQ ID NO:1)-peptide alone, D(KLAKLAK)2 (SEQ ID NO:11) peptide alone, or an equimolar mixture of the unconjugated peptides […] […] LNCaP cells were also exposed in parallel to increasing concentrations (20-100 μM) of […] (SEQ ID NO:1)-GG-D(KLAKLAK)2 (SEQ ID NO:11) and unrelated control peptides […] (SEQ ID NO:4)-GG-D(KLAKLAK)2 (SEQ ID NO:11) or […] (SEQ ID NO:5)-GG-D(KLAKLAK)2 (SEQ ID NO:11), under the same conditions. […] (SEQ ID NO:1)-GG-D(LAKLAK)2 (SEQ ID NO:11) peptide for 3 hours. Response was evaluated by a cell viability assay (WST-1; Roche, Mannheim, Germany).

MDA-PCa-2b cells = test: Induction of apoptosis, WST-1 cell viability assay, MDA-PCa-2b; format: cell-based, human; details: 10-100 μM, 24-72 hours
Method: as §1

white fat vasculature = test: In vivo homing of fitc-peptides in wild-type mice; parameters: species or system mouse
DU145 cells = test: Cell apoptosis assay (Annexin-V staining), DU145; format: cell-based, human; details: DU145, 30 μM, 6 hours
Excerpt: Cell apoptosis assays. Peptides were synthesized to our specifications at greater than 95% purity (Genemed Synthesis Inc., San Francisco, Calif.). Apoptosis was induced with a pro-apoptotic motif D(KLAKLAK)2 that disrupts mitochondrial membranes and is inert to eukaryotic plasma membranes. An equimolar concentration of the targeted [(WIFPWIQL (SEQ ID NO:6)-GG-D(KLAKLAK)2 (SEQ ID NO:11) and WDLAWMFRLPVG (SEQ ID NO:7)-GG-D(KLAKLAK)2) (SEQ ID NO:11)] and untargeted [(WIFPWIQL (SEQ ID NO:6)-+(KLAKLAK)2 (SEQ ID NO:11) and WDLAWMFRLPVG (SEQ ID NO:7)-+(KLAKLAK)2 (SEQ ID NO:11)] peptides was used. Human prostate cancer-derived DU 145 cells were grown in tissue chamber slides (Lab-Tek II Chamber Slide System; Nalge Nunc International Corp., Naperville, Ill.). Cells were washed with PBS and incubated with 30 μM (in 300 μl DMEM supplemented with 10% FBS, penicillin and streptomycin) of the targeted and untargeted peptides for 6 hours. Pure DMEM was used as an internal negative control. Apoptosis was detected with the Annexin-V-FLUOS Staining kit (Roche, Manheim, Germany) according to the manufacturer's instructions.

[4] = test system: DU145-derived human prostate carcinoma xenografts; test: Targeted treatment of nude mice bearing DU145 human prostate carcinoma xenografts; format: in vivo; details: 300 μg/week per mouse i.v.; controls vehicle and equimolar unconjugated mixtures; P<0.001
Method: Establishment of mice bearing human tumor xenografts. Male athymic nu/nu (nude) mice were obtained commercially from Harlan-Sprague-Dawley (Indianapolis, Ind.). Human prostate cancer xenografts were established by injection of DU 145 cells (10^6 cells in a 200 μl DMEM) in the subcutaneous tissue of 2 months old male nude mice.
Targeted treatment ofnude mice bearing human prostate carcinoma xenografts. DU145-derived tumor xenografts were established in male nude mice as described above. GRP78-targeting peptides used for therapy were coupled to the pro-apoptotic motif D(KLAKLAK)2 ([…]) and controls were treated with an equimolar concentration of the GRP78-targeting peptides and the pro-apoptotic motif. Mice were divided into groups of seven animals and treatment started when mean tumor volume for each group was around 200 mm^3. Two-dimensional measurements of tumors were made by caliper on anesthetized mice, and were used to calculate tumor volume. […]
Statistical analysis. Experiments are expressed as mean±standard errors of the means (SEM) of triplicate plates and analyzed by using the two-tailed Student's t test (t test). Tumor volumes were calculated individually for each mouse throughout the study and results are also expressed as mean±SEM for all the groups.

LNCaP cells [5] = test: Cell apoptosis assay (Annexin-V staining), LnCap; format: cell-based, human; details: LnCap (data not shown)
recombinant GRP78 = target: T1, recombinant GRP78 (Mesocricetus auratus, UniProt P07823); test: In vitro phage binding assay on immobilized GRP78; details: increasing concentrations of synthetic peptide against the corresponding phage
T1 construct: purchased Stressgen, Victoria, Canada
T1 sequence (P07823 19-654): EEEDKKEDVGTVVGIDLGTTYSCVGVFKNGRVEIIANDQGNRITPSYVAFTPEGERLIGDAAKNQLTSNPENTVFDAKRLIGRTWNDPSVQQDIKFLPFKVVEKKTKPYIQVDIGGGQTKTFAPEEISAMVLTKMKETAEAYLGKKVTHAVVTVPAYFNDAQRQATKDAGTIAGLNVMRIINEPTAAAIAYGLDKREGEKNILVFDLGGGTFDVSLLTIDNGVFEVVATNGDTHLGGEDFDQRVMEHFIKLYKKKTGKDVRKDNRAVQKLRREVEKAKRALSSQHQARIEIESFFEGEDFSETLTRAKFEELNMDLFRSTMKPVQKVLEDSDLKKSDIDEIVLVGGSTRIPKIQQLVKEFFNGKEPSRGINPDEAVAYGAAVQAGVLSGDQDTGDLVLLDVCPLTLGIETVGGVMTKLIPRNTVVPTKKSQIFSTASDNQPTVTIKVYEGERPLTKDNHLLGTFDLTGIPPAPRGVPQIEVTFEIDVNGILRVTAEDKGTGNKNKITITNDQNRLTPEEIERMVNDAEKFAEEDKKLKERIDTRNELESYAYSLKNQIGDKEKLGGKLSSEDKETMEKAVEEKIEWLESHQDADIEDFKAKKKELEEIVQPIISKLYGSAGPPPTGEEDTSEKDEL
Method: In vitro phage binding assays. GRP78, HSP70, HSP90 (all from Stressgen, Victoria, Canada) and bovine serum albumin (BSA) were immobilized on microtiter wells of 96-well plates overnight at 4° C. Wells were washed twice with phosphate-buffered saline (PBS), blocked with PBS containing 3% BSA for 1 hour at room temperature (RT), and incubated with 10^9 transducing units (TU) of WIFPWIQL (SEQ ID NO:6)-phage, WDLAWMFRLPVG (SEQ ID NO:7)-phage, or insertless control phage (Fd-tet) in 50 μl of PBS containing 1.5% BSA. After 2 hours at RT, wells were washed with PBS, and bound phage were recovered by infection with host bacteria (log-phase Escherichia coli K91 kan; OD600≈2). Aliquots of the bacterial culture were plated onto Luria-Bertani broth (LB) agar plates supplemented with 40 μg/ml tetracycline and 100 μg/ml kanamycin. Plates were incubated overnight at 37° C., and phage TU were counted in triplicate plates. Increasing concentrations of synthetic peptides WIFPWIQL (SEQ ID NO:6), WDLAWMFRLPVG (SEQ ID NO:7)-, and an unrelated control peptide CARAC (SEQ ID NO:9) (Genemed Synthesis Inc., San Francisco, Calif.) were used to evaluate competitive inhibition of phage binding. All peptides were solubilized in a standard stock solution of 10% dimethylsulfoxide (DMSO) and diluted to working concentrations for the assays.

In the case of CC(C)C[C@@H](NC(=O)[C@@H](CCCCN)NC(=O)CNC(=O)CNC(=O)[C@@H]1CSSC[C@H](N)C(=O)N[C@@H](CCCCN)C(=O)NCC(=O)NCC(=O)N[C@@H](CCCNC(=N)N)C(=O)N[C@@H](C)C(=O)N[C@@H](CCCCN)C(=O)N[C@@H](CC(=O)O)C(=O)N1)C(=O)N[C@H](C)C(=O)N[C@H](CCCCN)C(=O)N[C@H](CC(C)C)C(=O)N[C@H](C)C(=O)N[C@H](CCCCN)C(=O)N[C@H](CCCCN)C(=O)N[C@H](CC(C)C)C(=O)N[C@H](C)C(=O)N[C@H](CCCCN)C(=O)N[C@H](CC(C)C)C(=O)N[C@H](C)C(=O)N[C@H](CCCCN)C(=O)O (H-CKGGRAKDCGG[dK][dL][dA][dK][dL][dA][dK][dK][dL][dA][dK][dL][dA][dK]-OH; disulfide 1-9), the “apoptosis and appearance of control organs such as liver” value [1] is reported as “apoptosis was not detected in the control tissues” and the toxicity [2] is reported as “without detectable toxicity”.
In the case of “CGRRAGGSC (SEQ ID NO:1): soluble IL-11-mimic peptide alone, used as control”, the “programmed cell death / toxic effect (WST-1 cell viability)” value (“programmed cell death / toxic effect” for short) (LNCaP cells [3]) is reported as “no measurable toxic effects” and the “programmed cell death / toxic effect” value (MDA-PCa-2b cells) is reported as “no measurable toxic effects”.
For “CKGGRAKDC (SEQ ID NO:4)-fitc: soluble CKGGRAKDC peptide linked to fluorescein (fitc) at its C-terminus (CKGGRAKDC-{FITC′}; also: cyclized, bridge type not given here)”, the “presence in isolated ex-vivo blood vessels from white fat tissue” value (white fat vasculature; mouse, in vivo) was “presence”, the “detection in white fat vasculature” value (white fat vasculature; wild-type C57BL/6 mice, i.v., 5 min prior to tissue collection) was “specifically localized to and was internalized by blood vessels of subcutaneous and peritoneal white fat” and the “homing to blood vessels of brown fat, liver and other control organs” value (white fat vasculature; wild-type mice, i.v.) was “no CKGGRAKDC (SEQ ID NO:4)-fitc homing was observed”.
With “D(KLAKLAK)2 (SEQ ID NO:11): amphipathic, α-helix-forming anti-microbial pro-apoptotic peptide KLAKLAKKLAKLAK (D-amino acids) [reference compound]” the “programmed cell death / toxic effect” value (LNCaP cells [3]) was “no measurable toxic effects” and the “programmed cell death / toxic effect” value (MDA-PCa-2b cells) was “no measurable toxic effects”.
In the case of “WDLAWMFRLPVG (SEQ ID NO:7)-GG-D(KLAKLAK)2 (SEQ ID NO:11): GRP78-targeted pro-apoptotic peptide (WDLAWMFRLPVGGG[dK][dL][dA][dK][dL][dA][dK][dK][dL][dA][dK][dL][dA][dK])”, the “toxicity / apoptosis (Annexin-V staining)” value (shortened to “toxicity / apoptosis”) (DU145 cells) is reported as “induced apoptosis”, the “mean tumor volume relative to the controls” value [4] is reported as “significantly smaller” and the “toxicity / apoptosis” value (LNCaP cells [5]) is reported as “induced apoptosis”.
In the case of “WDLAWMFRLPVG (SEQ ID NO:7): synthetic GRP78-binding peptide”, the “inhibition of phage binding to GRP78 by synthetic peptide” value (recombinant GRP78) is reported as “inhibit binding of the corresponding phage in a dose-dependent manner”.
“WIFPWIQL (SEQ ID NO:6)-GG-D(KLAKLAK)2 (SEQ ID NO:11): GRP78-targeted pro-apoptotic peptide (WIFPWIQLGG[dK][dL][dA][dK][dL][dA][dK][dK][dL][dA][dK][dL][dA][dK])” was tested, and the “toxicity / apoptosis” value (DU145 cells) was “induced apoptosis”, the “mean tumor volume relative to the controls” value [4] was “significantly smaller” and the “toxicity / apoptosis” value (LNCaP cells [5]) was “induced apoptosis”.
In the case of “WIFPWIQL (SEQ ID NO:6): synthetic GRP78-binding peptide”, the “inhibition of phage binding to GRP78 by synthetic peptide” value (recombinant GRP78) is reported as “inhibit binding of the corresponding phage in a dose-dependent manner”.
